Source: PubChem BioAssay AID2658 (Sanford-Burnham Center for Chemical Genomics, 2010)
Values joined by “and” are separate entries in the source; they are usually repeats but may differ in a detail not shown here. Equal entries are not always repeated. Active and inactive are the calls of the source. No rule for the calls is given here.

These compounds were tested against Ubiquitin-conjugating enzyme E2 N (Homo sapiens) (UniProt P61088) (assay: inhibition of Ubc13-driven ubiquitin chain assembly – biochemical, TR-FRET, Uev1a, selectivity assay, SAR follow-up (AID 2658)). Conditions: Ubc13/Uev1a polyubiquitination, in vitro.
Sequence of Ubiquitin-conjugating enzyme E2 N (Homo sapiens) (P61088 whole entry, looked up): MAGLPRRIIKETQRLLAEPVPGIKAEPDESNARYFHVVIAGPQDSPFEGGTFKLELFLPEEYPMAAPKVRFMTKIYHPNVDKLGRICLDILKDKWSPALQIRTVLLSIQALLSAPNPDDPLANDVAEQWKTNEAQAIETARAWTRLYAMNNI

Row | SMILES | IC50
1 | O=C(N/N=C/c1ccc(F)cc1)c1cc(-c2ccco2)nc2ccccc12 | 26.1 µM and 31.2 µM
2 | COc1ccc(NC(=O)c2cc(-c3ccco3)nc3ccccc23)cc1S(=O)(=O)N1CCOCC1 | 53.4 µM
3 | Cc1ccsc1C=Nc1ccc(F)cc1 | > 100 µM (inactive)
4 | CC(=NOCc1nc2ccccc2c(=O)n1N=Cc1cc([N+](=O)[O-])ccc1O)c1ccccc1 | > 100 µM (inactive)
5 | COc1ccc2c(c1)C(NC(C)=O)C(=O)N2CCN1CCOCC1 (stereo not drawn) | 86.1 µM
6 | COc1ccc(CCNC(=O)c2cc(-c3ccco3)nc3ccccc23)cc1 | 65 µM
7 | O=C(COC(=O)c1cc(-c2ccco2)nc2ccccc12)NCc1ccc(F)cc1 | 72.7 µM
8 | O=C(O)c1ccc2c(c1)C1C=CCC1C(c1ccccc1)N2 (stereo not drawn) | > 100 µM (inactive)
9 | Cc1ccc(C2Nc3ccc(C(=O)O)cc3C3C=CCC32)cc1 (stereo not drawn) | > 100 µM (inactive)
10 | Cc1ccccc1NC(=O)Cn1c(O)c(N=NC(=O)c2ccccc2O)c2ccccc21 | 98 µM
11 | Cc1ccc(S(=O)(=O)N(C)C)cc1NC(=O)c1cc(-c2ccco2)nc2ccccc12 | > 100 µM (inactive)
12 | COc1ccccc1CNC(=O)CCOC(=O)c1cc(-c2ccco2)nc2ccccc12 | > 100 µM (inactive)
13 | CCOc1cc(C2c3c(oc4ccccc4c3=O)C(=O)N2c2nccs2)ccc1O (stereo not drawn) | > 100 µM (inactive)
14 | COc1ccccc1CNC(=O)c1cc(-c2ccco2)nc2ccccc12 | > 100 µM (inactive)
15 | COC(=O)c1c(-c2ccccc2)csc1NC(=O)/C=C/c1cccs1 | > 100 µM (inactive)
16 | COc1ccccc1NC(=O)Cn1c(O)c(N=NC(=O)c2ccccc2O)c2ccccc21 | > 100 µM (inactive)
17 | C/C(=N\OCc1nc2ccccc2c(=O)n1/N=C/c1ccccc1O)c1ccccc1 | > 100 µM (inactive)
18 | Cc1cccc2c(N=Nc3ccc(S(=O)(=O)Nc4cccc(Cl)c4)cc3[N+](=O)[O-])c(O)[nH]c12 | > 100 µM (inactive)
19 | O=C(Nc1ccccc1N1CCOCC1)c1cc(-c2ccco2)nc2ccccc12 | > 100 µM (inactive)

Row | SMILES | IC50
20 | COc1ccc(CCNC(=O)COC(=O)c2cc(-c3ccco3)nc3ccccc23)cc1 | > 100 µM (inactive)
21 | O=C(NNc1cc(N2CCCC2)nc(N2CCCC2)n1)c1ccc([N+](=O)[O-])cc1 | > 100 µM (inactive)
22 | Cc1ccc(O)c(N=Cc2cccs2)c1 | > 100 µM (inactive)
23 | COc1ccc(CNC(=O)COC(=O)c2cc(-c3ccco3)nc3ccccc23)cc1 | 34.6 µM
24 | CCCCn1c(NC(=O)c2ccc(Br)o2)c(S(=O)(=O)c2ccccc2)c2nc3ccccc3nc21 | > 100 µM (inactive)
25 | O=C(N=Nc1c(O)[nH]c2ccc([N+](=O)[O-])cc12)c1ccccc1Cl | > 100 µM (inactive)
26 | COc1ccc(CNC(=O)CCOC(=O)c2cc(-c3ccco3)nc3ccccc23)cc1 | > 100 µM (inactive)
27 | COc1ccc(CNC(=O)COC(=O)c2cc(-c3cccs3)nc3ccccc23)cc1 | 33.1 µM
28 | C/C(=N\OCc1nc2ccccc2c(=O)n1/N=C/c1ccc(Cl)cc1)c1ccccc1 | > 100 µM (inactive)
29 | S=c1[nH]nc(-c2cc(-c3ccccc3)n[nH]2)n1N=Cc1ccc(Cl)c(Cl)c1 | > 100 µM (inactive)
30 | Cc1[nH][nH]c(=O)c1C(c1ccc(-c2ccc(C(=O)O)cc2)o1)c1c(C)[nH][nH]c1=O | > 100 µM (inactive)
31 | O=C(NN=Cc1ccc(F)cc1)c1cc(-c2ccco2)nc2ccccc12 | > 100 µM (inactive)
32 | Cc1ccc(O)c(N=Cc2ccc(C)s2)c1 | > 100 µM (inactive)
33 | Cc1ccc(N=Cc2sccc2C)cc1C | > 100 µM (inactive)
34 | CCN(CC)CCNC(=O)c1cc(-c2ccco2)nc2ccccc12 | > 100 µM (inactive)
35 | CCCCn1c(NC(=O)c2ccccc2Cl)c(C#N)c2nc3ccccc3nc21 | > 100 µM (inactive)
36 | COc1ccccc1CCNC(=O)COC(=O)c1cc(-c2ccco2)nc2ccccc12 | > 100 µM (inactive)
37 | Cc1ccc(NC(=O)Cn2c(O)c(N=NC(=O)c3cc4ccccc4cc3O)c3ccccc32)cc1 | > 100 µM (inactive)
38 | COc1ccccc1NC(=O)COC(=O)c1cc(-c2ccco2)nc2ccccc12 | 16.7 µM and > 100 µM (inactive)
